Results taken from US6531613B1 (3M Innovative Properties Company, priority 2001, dated 2003).

How the values were obtained:
[1] = format: physicochemical; details: for Dye Concentration in Acetone at RT: 72 h
Description: Examples 3-4 and Comparative Example A were prepared by placing 60-100 mg of each of the compounds of Examples 1-2 and 6-methoxy-14H-anthra(2,1,9-mna)thioxanthene-14-one (described by […] et al.) in a vial with 5.0 ml acetone. […] Each vial was hand shaken and the solution was filtered using a 0.45 micron polytetrafluoroethylene (PTFE) filter commercially available from VWR Scientific Products, West Chester, Pa. under the trade designation “Acrodisc 13CR PTFE”. The amount of fluorescent dye in the saturated acetone solution was determined by measuring the major dye absorption band at 535 nm using a UV-Vis Spectrophotometer commercially available from Shimadzu Scientific Instruments, Inc., Columbia, Md. under the trade designation “Shimadzu model UV-2401PC”. Dye concentrations were calculated by measuring the absorbance of the saturated acetone solution, and then diluting that solution until absorbance of the resulting solution was below 3. The dyes were assumed to have equal absorbance per mole. Using the dilution and an absorbance coefficient of 16,100 A/mol/L (coefficient obtained in acetone for the dye of Example 2) and assuming a Beer's Law relationship, the concentration of dye in each saturated solution was calculated and is set out in TABLE I.

SMILES	Dye Concentration in Acetone at RT [1]	solubility in acetone relative to Comparative Example A [1]	melting point
COc1cc2c3ccccc3c(=O)c3ccc4c5ccccc5sc1c4c32 [A, 6-methoxy-14H-anthra(2,1,9-mna)thioxanthene-14-one, reference compound]	0.06 mg/mL	–	–
CCCCC(CC)COc1cc2c3ccccc3c(=O)c3ccc4c5ccccc5sc1c4c32 (stereo not drawn) [Example 1, 6-[(2-Ethylhexyl)oxy]-14H-anthra[2,1,9-mna]thioxanthene-14-one]	0.96 mg/mL	improved solubility	175 to 177 °C
CC(C)CC(CC(C)C)Oc1cc2c3ccccc3c(=O)c3ccc4c5ccccc5sc1c4c32 [Example 2, 6-(1-Isobutyl-3-methylbutoxy)-14H-anthra[2,1,9-mna]thioxanthene-14-one]	2.98 mg/mL	improved solubility	–
